# Like-named read-outs stand apart in the source and are kept apart here.
# Legend:
# expanded OPCs = test: cells; details: for viability at 0.1 µM / viability at 1 µM / viability at 10 µM: Rattus norvegicus, 72 h
# Procedure, shortened: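 Expanded OPCs seeded at 10,000 cells/well in differentiation media, then exposed to NCC library compounds at 10, 1 and 0.1 µM (quadruplicate, 0.1% DMSO) for three days. Viability read as alamarBlue fluorescence (560/590 nm) after 4 h at 37 °C; tunicamycin 5 ng/ml served as toxicity control.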
# [1] = test system: acutely dissociated and purified rat OPCs; test: Acute OL differentiation assay (MBP expression/cell, immunofluorescent image quantification); type: cell-based; details: for activation at 2 µM / activation at 10 µM / activation at 0.4 µM: Rattus norvegicus
# Procedure, shortened: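 Oligodendrocyte precursor cells were enriched from P6-P7 Sprague–Dawley rat brains by immunopanning (RAN-2 and GalC depletion, O4 selection), plated at 5000 cells/well in serum-free, mitogen-free differentiation media on PDL/laminin 96-well view plates, centrifuged at 200×g, and pre-incubated 1–2 h before test compounds were added in quadruplicate. On DIV4, cells were fixed, stained for MBP and DAPI, imaged automatically, and MBP expression per cell was quantified.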
# [2] = read-out: 0.1 µM (% DMSO), alamarBlue viability of expanded OPCs, compound at 0.1 µM, sheet All Tox data
# [3] = read-out: 1 µM (% DMSO), alamarBlue viability of expanded OPCs, compound at 1 µM, sheet All Tox data
# [4] = read-out: 10 µM (% DMSO), alamarBlue viability of expanded OPCs, compound at 10 µM, sheet All Tox data
# [5] = 2 uM test compound, relative to quetiapine, sheet "All OLga data", read-out: OL differentiation, 2 uM (% Quet)
# [6] = 10 uM test compound, relative to quetiapine, sheet "All OLga data", read-out: OL differentiation, 10 uM (% Quet)
# [7] = alamarBlue viability of expanded OPCs, compound at 0.1 µM, relative to DMSO control
# [8] = alamarBlue viability of expanded OPCs, compound at 1 µM, relative to DMSO control
# [9] = alamarBlue viability of expanded OPCs, compound at 10 µM, relative to DMSO control
# [10] = test compound at 2 uM, MBP expression relative to quetiapine, NCC library screen, sheet "All OLga data", read-out: 2 uM (% Quet)
# [11] = test compound at 10 uM, MBP expression relative to quetiapine, NCC library screen, sheet "All OLga data", read-out: 10 uM (% Quet)
# [12] = read-out: 0.1 µM (% DMSO), alamarBlue viability, NCC library compound at 0.1 µM, sheet "All Tox data"
# [13] = read-out: 1 µM (% DMSO), alamarBlue viability, NCC library compound at 1 µM, sheet "All Tox data"
# [14] = read-out: 10 µM (% DMSO), alamarBlue viability, NCC library compound at 10 µM, sheet "All Tox data"
# [15] = 0.4 uM test compound, relative to quetiapine, sheet "All OLga data", read-out: OL differentiation, 0.4 uM (% Quet)
# [16] = test compound at 2 uM, NCC library screen, sheet "All OLga data", relative to quetiapine, read-out: 2 uM (% Quet)
# [17] = test compound at 10 uM, NCC library screen, sheet "All OLga data", relative to quetiapine, read-out: 10 uM (% Quet)
# [18] = alamarBlue viability, NCC library compound at 0.1 µM, sheet "All Tox data"
# [19] = alamarBlue viability, NCC library compound at 1 µM, sheet "All Tox data"
# [20] = alamarBlue viability, NCC library compound at 10 µM, sheet "All Tox data"
smiles,measurement,setting,value
CC(C)NCC(O)COc1ccc(COCCOC(C)C)cc1 (stereo not drawn) [Bisoprolol],viability at 0.1 µM,expanded OPCs; [2],91.3%
same,viability at 1 µM,expanded OPCs; [3],89.8%
same,viability at 10 µM,expanded OPCs; [4],96.5%
same,activation at 2 µM,[1]; [5],-18.8%
same,activation at 10 µM,[1]; [6],-17.3%
Brc1c(NC2=NCCN2)ccc2nccnc12 [Brimonidine],0.1 µM (% DMSO),expanded OPCs; [7],91.9 % DMSO
same,1 µM (% DMSO),expanded OPCs; [8],99.2 % DMSO
same,10 µM (% DMSO),expanded OPCs; [9],95.4 % DMSO
same,activation at 2 µM,[1]; [10],21.9%
same,activation at 10 µM,[1]; [11],8.8%
CN(C)CCC(c1ccc(Br)cc1)c1ccccn1 (stereo not drawn) [Brompheniramine],viability at 0.1 µM,expanded OPCs; [12],95.3%
same,viability at 1 µM,expanded OPCs; [13],84.4%
same,viability at 10 µM,expanded OPCs; [14],39.2%
same,activation at 0.4 µM,[1]; [15],-2%
same,activation at 2 µM,[1]; [5],0.5%
COc1cc2c(cc1OC)[C@@]13CCN4CC5=CCO[C@H]6CC(=O)N2[C@H]1[C@H]6[C@H]5C[C@H]43 [Brucine],viability at 0.1 µM,expanded OPCs; [12],93%
same,viability at 1 µM,expanded OPCs; [13],79.4%
same,viability at 10 µM,expanded OPCs; [14],46.6%
same,activation at 0.4 µM,"[1]; test compound at 0.4 uM, NCC library screen, sheet ""All OLga data"", relative to quetiapine, read-out: 0.4 uM (% Quet)",-2.6%
same,activation at 2 µM,[1]; [16],11%
CCCC1O[C@@H]2C[C@H]3[C@@H]4CCC5=CC(=O)C=C[C@]5(C)[C@H]4[C@@H](O)C[C@]3(C)[C@]2(C(=O)CO)O1 (stereo partly drawn) [Budesonide],0.1 µM (% DMSO),expanded OPCs; [7],112.0 % DMSO
same,1 µM (% DMSO),expanded OPCs; [8],115.9 % DMSO
same,10 µM (% DMSO),expanded OPCs; [9],95.7 % DMSO
same,activation at 2 µM,[1]; [10],20.2%
same,activation at 10 µM,[1]; [11],-2.2%
COc1cc(OC)c(C(=O)CCCN2CCCC2)c(OC)c1 [Buflomedil],viability at 0.1 µM,expanded OPCs; [2],105%
same,viability at 1 µM,expanded OPCs; [3],97.6%
same,viability at 10 µM,expanded OPCs; [4],124%
same,activation at 2 µM,[1]; [5],-16.4%
same,activation at 10 µM,[1]; [6],24.4%
CCCCNc1cc(C(=O)O)cc(S(N)(=O)=O)c1Oc1ccccc1 [Bumetanide],0.1 µM (% DMSO),expanded OPCs; [7],92.3 % DMSO
same,1 µM (% DMSO),expanded OPCs; [8],97.8 % DMSO
same,10 µM (% DMSO),expanded OPCs; [9],92.2 % DMSO
same,activation at 2 µM,[1]; [16],-20.2%
same,activation at 10 µM,[1]; [17],-11.6%
CCCCN1CCCCC1C(=O)Nc1c(C)cccc1C (stereo not drawn) [Bupivacaine],viability at 0.1 µM,expanded OPCs; [12],79.1%
same,viability at 1 µM,expanded OPCs; [13],83.4%
same,viability at 10 µM,expanded OPCs; [14],70.5%
same,activation at 2 µM,[1]; [16],-1%
same,activation at 10 µM,[1]; [17],7%
CC(NC(C)(C)C)C(=O)c1cccc(Cl)c1 (stereo not drawn) [Bupropion],viability at 0.1 µM,expanded OPCs; [2],94.3%
same,viability at 1 µM,expanded OPCs; [3],98.9%
same,viability at 10 µM,expanded OPCs; [4],128%
same,activation at 2 µM,[1]; [5],33.6%
O=C1CC2(CCCC2)CC(=O)N1CCCCN1CCN(c2ncccn2)CC1 [Buspirone],0.1 µM (% DMSO),expanded OPCs; [7],98.1 % DMSO
same,1 µM (% DMSO),expanded OPCs; [8],95.9 % DMSO
same,10 µM (% DMSO),expanded OPCs; [9],122.3 % DMSO
same,activation at 2 µM,[1]; [10],11.2%
same,activation at 10 µM,[1]; [11],38.1%
CS(=O)(=O)OCCCCOS(C)(=O)=O [Busulfan],0.1 µM (% DMSO),expanded OPCs; [7],93.9 % DMSO
same,1 µM (% DMSO),expanded OPCs; [8],91.8 % DMSO
same,10 µM (% DMSO),expanded OPCs; [9],79.1 % DMSO
same,activation at 2 µM,[1]; [16],2.3%
same,activation at 10 µM,[1]; [17],-6.2%
OC[C@H]1O[C@@H](n2cnc3c(NC4CCCC4)nc(Cl)nc32)[C@H](O)[C@@H]1O [CCPA],0.1 µM (% DMSO),expanded OPCs; [18],87.1 % DMSO
same,1 µM (% DMSO),expanded OPCs; [19],88.1 % DMSO
same,10 µM (% DMSO),expanded OPCs; [20],93.0 % DMSO
same,2 uM (% Quet),"[1]; test compound at 2 uM, NCC library screen, sheet ""All OLga data"", relative to quetiapine",-30.5 % Quet
same,10 uM (% Quet),"[1]; test compound at 10 uM, NCC library screen, sheet ""All OLga data"", relative to quetiapine",-64.0 % Quet
Nc1nc2ccc(Cl)cc2c2nc(-c3ccco3)nn12 [CGS 15943],viability at 0.1 µM,expanded OPCs; read-out: 0.1 µM (% DMSO),81.2%
same,viability at 1 µM,expanded OPCs; read-out: 1 µM (% DMSO),94.8%
same,viability at 10 µM,expanded OPCs; read-out: 10 µM (% DMSO),112%
same,activation at 2 µM,"[1]; read-out: OL differentiation, 2 uM (% Quet)",-24.4%
same,activation at 10 µM,"[1]; read-out: OL differentiation, 10 uM (% Quet)",-126%
CN1CCN(c2nc3cc(C(F)(F)F)ccc3n3cccc23)CC1.O=C(O)/C=C\C(=O)O.O=C(O)/C=C\C(=O)O [CGS-12066B],0.1 µM (% DMSO),expanded OPCs; [18],78.7 % DMSO
same,1 µM (% DMSO),expanded OPCs; [19],44.5 % DMSO
same,10 µM (% DMSO),expanded OPCs; [20],16.9 % DMSO
same,0.08 uM (% Quet),"[1]; test compound at 0.08 uM, NCC library screen, sheet ""All OLga data"", relative to quetiapine",28.1 % Quet
same,0.4 uM (% Quet),"[1]; test compound at 0.4 uM, NCC library screen, sheet ""All OLga data"", relative to quetiapine",-50.5 % Quet
C=C1/C(=C\C=C2/CCC[C@]3(C)[C@@H]([C@H](C)/C=C/[C@@H](O)C4CC4)CC[C@@H]23)C[C@@H](O)C[C@@H]1O [Calcipotriene],viability at 0.1 µM,expanded OPCs; [2],98.3%
same,viability at 1 µM,expanded OPCs; [3],89%
same,viability at 10 µM,expanded OPCs; [4],11.5%
same,activation at 0.4 µM,[1]; [15],14.8%
same,activation at 2 µM,[1]; [5],-7.8%
C=C1/C(=C\C=C2/CCC[C@]3(C)[C@@H]([C@H](C)CCCC(C)(C)O)CC[C@@H]23)C[C@@H](O)C[C@@H]1O [Calcitriol],viability at 0.1 µM,expanded OPCs; [12],99.4%
same,viability at 1 µM,expanded OPCs; [13],108%
same,viability at 10 µM,expanded OPCs; [14],11%
same,activation at 0.4 µM,[1]; [15],8.9%
same,activation at 2 µM,[1]; [5],30.3%
C[C@H](CS)C(=O)N1CCC[C@H]1C(=O)O [Captopril],viability at 0.1 µM,expanded OPCs; [12],90.7%
same,viability at 1 µM,expanded OPCs; [13],93.2%
same,viability at 10 µM,expanded OPCs; [14],99.1%
same,activation at 2 µM,[1]; [16],8%
same,activation at 10 µM,[1]; [17],8.4%
NC(=O)N1c2ccccc2C=Cc2ccccc21 [Carbamazepine],0.1 µM (% DMSO),expanded OPCs; [7],107.0 % DMSO
same,1 µM (% DMSO),expanded OPCs; [8],99.7 % DMSO
same,10 µM (% DMSO),expanded OPCs; [9],103.7 % DMSO
same,activation at 2 µM,[1]; [10],-5.2%
same,activation at 10 µM,[1]; [11],-13.7%
C[C@@](Cc1ccc(O)c(O)c1)(NN)C(=O)O [Carbidopa],0.1 µM (% DMSO),expanded OPCs; [7],108.9 % DMSO
same,1 µM (% DMSO),expanded OPCs; [8],101.2 % DMSO
same,10 µM (% DMSO),expanded OPCs; [9],82.3 % DMSO
same,activation at 2 µM,[1]; [10],-35.6%
same,activation at 10 µM,[1]; [11],-121%
CN(C)CCOC(c1ccc(Cl)cc1)c1ccccn1 (stereo not drawn) [Carbinoxamine],viability at 0.1 µM,expanded OPCs; [12],92.8%
same,viability at 1 µM,expanded OPCs; [13],73.8%
same,viability at 10 µM,expanded OPCs; [14],57.6%
same,activation at 2 µM,[1]; [16],7.4%
same,activation at 10 µM,[1]; [17],-28.8%
CCCC(C)(COC(N)=O)COC(=O)NC(C)C (stereo not drawn) [Carisoprodol],0.1 µM (% DMSO),expanded OPCs; [7],92.1 % DMSO
same,1 µM (% DMSO),expanded OPCs; [8],90.4 % DMSO
same,10 µM (% DMSO),expanded OPCs; [9],89.3 % DMSO
same,activation at 2 µM,[1]; [10],-33%
same,activation at 10 µM,[1]; [11],-33%
CCCCCCNC(=O)n1cc(F)c(=O)[nH]c1=O [Carmofur],viability at 0.1 µM,expanded OPCs; [2],90.5%
same,viability at 1 µM,expanded OPCs; [3],76.1%
same,viability at 10 µM,expanded OPCs; [4],14.6%
same,activation at 0.4 µM,[1]; [15],-28.7%
same,activation at 2 µM,[1]; [5],-84.8%
COc1ccccc1OCCNCC(O)COc1cccc2[nH]c3ccccc3c12 (stereo not drawn) [Carvedilol],viability at 0.1 µM,expanded OPCs; [2],101%
same,viability at 1 µM,expanded OPCs; [3],54.5%
same,viability at 10 µM,expanded OPCs; [4],12%
same,activation at 0.4 µM,[1]; [15],-16.1%
same,activation at 2 µM,[1]; [5],-95.9%
